# Test results from US8871937B2, “8-hydroxy-quinoline derivatives” (“AVIDIN” Kutato, Fejleszto es Kereskedelmi Korlatolt …, priority 2010, dated 2014).
# Legend:
# U87 (human glioma) = assay: MTS cytotoxicity test, U87; assay type: cell-based; settings: U-87 MG, read-out: EC50 (concentration where half of the cells died, MTS test)
# Protocol: (§1) In our experiment, HepG2 and Hep3B (human hepatocellular carcinoma), SUM149PT (human breast tumour), K562 (human erythroblastic leukaemia, U87 (human glioma), CCRF-CEM (human leukaemia) cell cultures were used; these were grown in the following medium: U87, CCRF-CEM; Dulbecco's Modified Eagle Medium (D-MEM) (high glucose) (Gibco BRL, Carlsbad, Calif., USA), penicillin (50 IU/ml-streptomycin ([…]), 10% foetal cattle serum.
# (§2) The cells were placed into 96-well microtitration plates (10 000 cells/well), and after 24 hours the cells were incubated with the various substances. After incubation MTS test (3-(4,5-dimethylthiazol-2-yl)-5-(3-carboxymethoxyphenyl)-2-(4-sulphophenyl)-2H-tetrazolium) (Promega, Madison, Wis., USA) was conducted adding it in a final concentration of 0.5 mg/ml to the cells, which were then incubated at 37° C. for 1 hour. The cells were washed with PBS and the formazan dye was dissolved in isopropanol. The amount of the formazan dye transformed was measured by means of a Powerwave reader (Biotek, Winooski, Vt.) at 570 nm; background measurement 690 nm. The calibration curve was obtained in such a way that the capacity of the serial dilutions of the cells to transform MTS was measured and the viable cell count was calculated using Gen5 software.
# (§3) In the table the EC50 values of each substance is presented (the concentration where half of the cells died based on the results of the MTS test).
# [1] = tested on: HepG2 (human hepatocellular carcinoma); assay: MTS cytotoxicity test, HepG2; assay type: cell-based; settings: HepG2 (liver), read-out: EC50 (concentration where half of the cells died, MTS test)
# Protocol: as §1
# (§4) 1:1 mixture of HepG2, Hep3B, SUM149PT: Dulbecco's Modified Eagle Medium (D-MEM) (high glucose) (Gibco BRL, Carlsbad, Calif., USA) and Nutrient Mixture F-12 Ham (Sigma, St. Louis, Mo., USA), penicillin (50 IU/ml)-streptomycin ([…]), 10% foetal cattle serum.
# as §2, §3
# [2] = tested on: K562 (human erythroblastic leukaemia); assay: MTS cytotoxicity test, K562; assay type: cell-based; settings: read-out: EC50 (concentration where half of the cells died, MTS test)
# Protocol: as §1, §2, §3
# [3] = biological target: T1, Matrix metalloproteinase 9 (MMP-9, 92 kDa gelatinase) (Rattus norvegicus, UniProt P50282); assay: Gelatinase activity in gel after electrophoresis of H9c2 supernatant (MMP-9); assay type: biochemical; settings: 30 uM, substance present during incubation of the gel
# T1 construct: endogenous in cells; host or cells: H9c2 rat embryonic myocardial cells (culture supernatant)
# Protocol: (§5) H9c2 rat embryonic myocardial cells (from ATCC, Rockville, Md., USA) were grown in Dulbecco's modified eagle's medium containing 10% cattle serum, 4 mM L-glutamine (Sigma-Aldrich, Hungary), 100 IU/ml penicillin and 100 ug/ml streptomycin.
# [4] = tested on: CCRF-CEM (human leukaemia); assay: MTS cytotoxicity test, CCRF-CEM; assay type: cell-based; settings: read-out: EC50 (concentration where half of the cells died, MTS test)
# Protocol: as §1
# CCRF-CEM: RPMI Media 1640 (Gibco BRL, Carlsbad, Calif., USA), penicillin (50 IU/ml-streptomycin ([…]), 10% foetal cattle serum.
# as §2, §3
# [5] = tested on: SUM149PT (human breast tumour); assay: MTS cytotoxicity test, SUM149PT; assay type: cell-based; settings: read-out: EC50 (concentration where half of the cells died, MTS test)
# Protocol: as §1, §4, §2, §3
# Lewis rats = assay: Heterotopic heart transplantation, reperfusion injury; assay type: in vivo, rat; settings: 3 mg/kg
# Protocol: A heterotropic heart transplant experiment model was performed in a way described earlier (Poly(ADP-Ribose): inhibition of polymerase reduces the reperfusion injury occurring after heart transplantation (Szabó et al. 2002) , Briefly: the donor hearts were transplanted from Lewis rats. After ischemic protection performed at 4° C. for 1 hour, the hearts were implanted intraabdominally via anastomising the aorta and the pulmonary artery of the donor heart with the abdominal aorta or vena cava of the recipient rat. Care of all animals was performed by people in line with the requirements of “Principles of Laboratory Animal Care”; National Society of Medical Research, and the Guide for the Care and Use of Laboratory Animals prepared by the National Academy of Sciences; publisher: National Institutes of Health (NIH Publication No. 86-23, revised 1996).
# The functional measurements of the transplant were carried out as follows: the left ventricular systolic pressure (LVSP), left ventricular end diastolic pressure (LVEDP), rate of the change of blood pressure (dP/dt) and relaxation time constant (TE) were measured by means of a Millar micromanometer (Millar Instruments, Inc.), with different LV, using an intraventricular ballon. The total coronary blood flow (CBF) was measured on the donor aorta with perivascular ultrasonic flow sample. After determination of the baseline, the endothelium-dependent vasodilator acetylcholine (ACH, 1 nmol/l, 0.2 ml) and bradykinin (BK 0.1 nmol/l, 0.2 ml), and the endothelium-independent vasodilator sodium nitroprussid (SNP, 10 nmol/l, 0.2 ml) were added directly into the coronary arteries of the transplant through the donor aorta. Between the infusions, CBP was allowed to return to the baseline level. The vasodilator response was expressed as the maximum percentage change of CBF from the baseline.
# Two transplant groups were studied (n=6/in each group). Just before loosening the aorta clamp, slow injection of common salt solution (control group) or the compound according to Example 1 (3 mg/kg) was started and it was continued during the first 5 minutes of the reperfusion period.
# Measurement of the systolic and diastolic function and CBF in group A (control) and group B (compound according to Example 1) was performed 1 hour after reperfusion.
# [6] = biological target: T2, Matrix metalloproteinase 2 (MMP-2, 72 kDa gelatinase) (Rattus norvegicus, UniProt P33436); assay: Gelatinase activity in gel after electrophoresis of H9c2 supernatant (MMP-2); assay type: biochemical; settings: 30 uM, substance present during incubation of the gel
# T2 construct: endogenous in cells; host or cells: H9c2 rat embryonic myocardial cells (culture supernatant)
# T2 sequence (P33436 110-662): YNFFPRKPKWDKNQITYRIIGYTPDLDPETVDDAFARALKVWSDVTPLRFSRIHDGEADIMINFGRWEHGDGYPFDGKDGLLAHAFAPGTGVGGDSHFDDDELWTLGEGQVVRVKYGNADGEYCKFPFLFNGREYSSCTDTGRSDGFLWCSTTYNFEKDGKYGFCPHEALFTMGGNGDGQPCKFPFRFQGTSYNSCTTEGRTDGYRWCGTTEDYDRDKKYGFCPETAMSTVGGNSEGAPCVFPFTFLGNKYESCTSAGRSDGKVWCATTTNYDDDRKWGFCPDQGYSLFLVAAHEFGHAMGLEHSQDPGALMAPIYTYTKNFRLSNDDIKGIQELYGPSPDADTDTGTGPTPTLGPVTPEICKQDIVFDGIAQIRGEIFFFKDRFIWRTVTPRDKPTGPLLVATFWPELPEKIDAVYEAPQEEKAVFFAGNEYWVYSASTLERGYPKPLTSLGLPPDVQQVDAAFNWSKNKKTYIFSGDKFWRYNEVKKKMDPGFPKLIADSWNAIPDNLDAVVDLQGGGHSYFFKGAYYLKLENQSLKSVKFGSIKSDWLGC
# Protocol: as §5
# [7] = tested on: Hep3B (human hepatocellular carcinoma); assay: MTS cytotoxicity test, Hep3B; assay type: cell-based; settings: Hep3B (liver), read-out: EC50 (concentration where half of the cells died, MTS test)
# Protocol: as §1, §4, §2, §3
# Wistar rats = assay: Forced swimming test; assay type: in vivo, rat; settings: 30 mg/kg, previous experiments
# Protocol: Wistar rats received from Charles River Laboratories (Budapest, Hungary) were used as test animals. App. 2 month rats were used (200-300 g body weight). The animals were conditioned for app. 1 week. The animals received standard laboratory food (Charles River Laboratories, Budapest, Hungary) and tap water ad libitum. The temperature and humidity were kept at 22±2° C. and 60±10%, respectively. The rats were kept in groups of 5 in 45×35×25 cm Makrolon cages. Day/night cycles of 12 hours were used; the light was switched off at 19:00. The experiments were conducted in the daylight period. The experiments were conducted in accordance with the European Communities Council Directive of 24 Nov. 1985 (86/609/EEC, according to the control and approval of the Animal Welfare Committee of the Institute of Experimental Medicine).
# Rats were forced to swim twice as described in the following publication: Porsolt et al., 1978. On the first day every rat was placed in a 15 cm wide, 35 cm high glass cylinder filled with water to 30 cm. […] Behaviour of the animals was recorded by a video camera located 2 meters from the cylinders. The following behaviour factors were recorded: struggling (the animal tries to leave the cylinder by climbing on the walls); swimming (swimming round in the cylinder) and floating (the animal makes only the movements necessary to keep its head above the wafer). […]
# [8] = after 60 minute reperfusion, vs control
# T1 sequence (P50282 108-708): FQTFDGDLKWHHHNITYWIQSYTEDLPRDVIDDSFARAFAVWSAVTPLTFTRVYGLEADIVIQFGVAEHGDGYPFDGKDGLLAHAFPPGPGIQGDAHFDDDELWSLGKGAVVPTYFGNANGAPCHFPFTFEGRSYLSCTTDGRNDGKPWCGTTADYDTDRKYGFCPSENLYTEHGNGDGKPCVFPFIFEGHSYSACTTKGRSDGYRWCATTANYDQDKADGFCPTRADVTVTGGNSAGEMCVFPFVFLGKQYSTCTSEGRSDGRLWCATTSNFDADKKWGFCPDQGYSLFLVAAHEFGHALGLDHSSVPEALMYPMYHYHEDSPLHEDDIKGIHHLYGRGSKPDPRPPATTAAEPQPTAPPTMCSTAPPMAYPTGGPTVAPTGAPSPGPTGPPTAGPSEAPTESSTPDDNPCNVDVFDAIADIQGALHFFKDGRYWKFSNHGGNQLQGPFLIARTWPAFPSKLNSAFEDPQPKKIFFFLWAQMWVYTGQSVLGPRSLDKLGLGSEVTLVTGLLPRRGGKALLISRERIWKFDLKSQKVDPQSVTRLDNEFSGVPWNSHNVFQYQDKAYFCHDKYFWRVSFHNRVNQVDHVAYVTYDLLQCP
SMILES,EC50 (U87 (human glioma)) [nM],EC50 [1] [nM],EC50 [2] [nM],EC50 [4] [nM],EC50 [5] [nM],EC50 [7] [nM],other results
Cc1cccc(NC(c2ccc(C(F)(F)F)cc2F)c2ccc3cccnc3c2O)n1 (stereo not shown) [7-((6-methylpyridin-2-ylamino)(2-fluoro-4-(trifluoromethyl)phenyl)methyl)quinolin-8-ol],2500,1000,1500,–,–,–,–
"Cc1cccc(NC(c2ccc([N+](=O)[O-])cc2)c2ccc3cccnc3c2O)n1 (stereo not shown) [Example 1, 7-((6-methylpyridin-2-ylamino) (4-nitrophenyl)methyl)quinolin-8-ol]",2500,500,1000,1000,10000,–,"inhibition of 92 kDa gelatinase (MMP-9) [3]: inhibited the 92 kDa gelatinase (MMP-9) as well, hut to a less extent than the 72 kDa gelatinase; LVEDP (left ventricular end diastolic pressure) (Lewis rats; [8]): did not show changing values between the groups; LVSP (left ventricular systolic pressure) (Lewis rats; [8]): significantly (P=0.05) higher; peak positive dP/dt (Lewis rats; [8]): significantly (P=0.05) higher; systolic functional recovery (Lewis rats; [8]): significantly better; reperfusion injury after heart transplantation (Lewis rats; injection at start of reperfusion): Reduces Reperfusion Injury; systolic heart function curves (Lewis rats; vs group treated with the carrier (FIG. 1a, 1b)): significant drift to the left; inhibition of 72 kDa gelatinase (MMP-2) [6]: completely inhibited"
"CCOC(=O)c1ccc(NC(c2ccc([N+](=O)[O-])cc2)c2ccc3cccnc3c2O)cc1 (stereo not shown) [Example 2, Ethyl 4-((8-hydroxyquinolin-7-yl) (4-nitrophenyl)methylamino)benzoate]",4000,2500,–,1000,–,5000,–
"Oc1c(C(Nc2ccc(C(F)(F)F)cc2)c2ccccn2)ccc2cccnc12 (stereo not shown) [Example 5, 7-[pyridin-2-yl-(4-trifluoromethyl-phenylamino)-methyl]-quinolin-8-ol]",3500,2000,–,100,–,2000,–
"Cc1cccc(NC(c2ccc(C(F)(F)F)cc2)c2ccc3cccnc3c2O)n1 (stereo not shown) [Example 7, 7-[(6-methyl-pyridin-2-ylamino)-(4-trifluoromethyl-phenyl)-methyl]-quinolin-8-ol]",–,500,15000,300,–,5000,–
"Cc1ccnc(NC(c2ccc(C(F)(F)F)cc2)c2ccc3cccnc3c2O)c1 (stereo not shown) [Example 8, 7-[(4-methyl-pyridin-2-ylamino)-(4-trifluoromethylphenyl)-methyl]-quinolin-8-ol]",–,–,8000,–,10000,–,–
"Cc1ccnc(NC(c2ccc(C(F)(F)F)cc2)c2ccc3cccnc3c2O)n1 (stereo not shown) [Example 10, 7-((4-methylpyrimidin-2-ylamino) (4-(trifluoromethyl)phenyl)methyl)quinolin-8-ol]",5000,1000,7000,–,5000,–,–
"Cc1ccnc(NC(c2ccccc2O)c2ccc3cccnc3c2O)n1 (stereo not shown) [Example 11, 7-[(2-hydroxyphenyl)-(4-methyl-pyrimidin-2-ylamino)-methyl]-quinolin-8-ol]",–,1000,5000,–,–,–,–
"Cc1cccc(NC(c2ccc(F)c(F)c2)c2ccc3cccnc3c2O)n1 (stereo not shown) [Example 16, 7-((6-methylpyridin-2-ylamino) (3,4-difluorophenyl)methyl)quinolin-8-ol]",2500,5000,1500,–,–,–,–
"CN(C)CCCN1c2ccccc2CCc2ccccc21 [impipramine, imipramine]",–,–,–,–,–,–,floating in forced swimming test (Wistar rats): reliably reduced floating
